The text below walks through data of US20210318318A1, “Kinase Activity In Tumors” (Institute For Cancer Research d/b/a The Research Institute …, priority 2018, published 2021).

Common to all, as to assay type: cell-based, human
One test deals with OVCAR4 cells. As to the kind of experiment: Drug growth inhibition in cells depleted of dark kinases by siRNA (Cell Titer Glo). Conditions: increasing doses of drug. The protocol: OVCAR4 cells were transfected with control nontargeting or dark kinase siRNAs and treated with escalating doses of appropriate drugs.
To explore if blocking dark kinases AAK1, STK38 or MRCKA activity in combination with current therapies improves drug efficacy, OVCAR4 cells depleted of AAK1, STK38 or MRCKA were treated with increasing doses of carboplatin, olaparib, JQ1, or a variety of kinase inhibitors in clinical trials for HGSOC.
siRNA transfections were performed using 25 nM siRNA duplex and the reverse transfection protocol. 3000-5000 cells per well were added to 96 well plates with media containing the siRNA and transfection reagent (Lipofectamine RNAiMax) according to the manufacturer's instructions. In experiments where inhibitors were used, the inhibitor was added at the time of transfection. Cells were allowed to grow for 72-120 hours post-transfection prior to CellTiter Glo (Promega) analysis. Two-to-three independent experiments were performed with each cell line and siRNA. Students t tests were performed for statistical analyses and p values ≤0.05 were considered significant. For western blot studies, the same procedure was performed with volumes and cell numbers proportionally scaled to a 60 mm or 10 cm dish, and cells were collected 24-72 hours post-transfection. siRNA product numbers and manufacturers are listed in Table 5.

In another test the test system is OVCAR4. As to the kind of experiment: Short-term growth assay (CellTiter-Glo cell viability), kinase inhibitors. The protocol:
(§1) Cell viability was determined by Cell Titer Glo analysis.
(§2) To explore the therapeutic potential of the HGSOC kinome signature, a detailed molecular analysis of protein levels/activity, growth and survival functions was carried out in a panel of recently validated HGSOC cell lines (Coscia et al., Nat. Commun., 2016, 7, 12645) that harbor commonly encountered HGSOC mutations and genetic rearrangements (see, FIG. 5A).
(§3) For short-term growth assays, 3000-5000 cells were plated per well in 96-well plates and allowed to adhere and equilibrate overnight. Drug was added the following morning and after 120 hours of drug treatment, cell viability was assessed using the CellTiter-Glo Luminescent cell viability assay according to manufacturer (Promega). Students t tests were performed for statistical analyses and p values ≤0.05 were considered significant. For colony formation assays, cells were plated in 24-well dishes (3000-5000 cells per well) and incubated overnight before continuous drug treatment for 14 days, with drug and media replaced twice weekly. At the end of treatment, cells were rinsed with PBS and fixed with chilled methanol for 10 minutes at −20° C. Methanol was removed by aspiration, and cells were stained with 0.5% crystal violet in 20% methanol for 20 minutes at room temperature, washed with distilled water, and scanned.
A general note: ATP-based viability assays read luminescence as a measure of living cells.

In a further test the test system is OVSAHO. The description is as above. The protocol:
as §1, §2, §3

The test system of another test is Kuramochi. The description is as above. The protocol: as §1, §2, §3
In a further test the test system is SNU-119. The description is as above. The protocol:
as §1, §2, §3

For a further test, the system named is COV362. The description is as above. As to the method:
as §1
COV362 cells were treated with increasing concentrations of A-674563 and cell viability assessed by Cell Titer Glo according to manufacturer's instructions. Data represent the mean of six replicates.
as §2, §3

In the case of `NC(=O)Nc1cc(-c2cccc(F)c2)sc1C(=O)N[C@H]1CCCNC1` [AZD7762], in the test on OVCAR4 cells, the “growth inhibition by drug with MRCKA knockdown relative to non-targeting control siRNA” value is given as “enhanced growth inhibition”. Moreover, the “Kinase inhibition profile of HGSOC cells (growth inhibition, Cell Titer Glo)” value (from here on “Kinase inhibition profile of HGSOC cells”) with OVCAR4 (drug 0.312 uM) is on record as 0; in the test on OVSAHO (drug 0.312 uM) it was 0.7988; with Kuramochi (drug 0.312 uM), 0.663; in the test on SNU-119 (drug 0.312 uM), 0; with COV362 (drug 0.312 uM), 0.05872.
As for `COc1cc(Nc2ncc3c(n2)-c2ccc(Cl)cc2C(c2c(F)cccc2OC)=NC3)ccc1C(=O)O` [Alisertib], the “Kinase inhibition profile of HGSOC cells” value in the test on OVCAR4 (drug 0.312 uM) worked out at 0.1016; in the test on OVSAHO (drug 0.312 uM), 0.5387; in the test with Kuramochi (drug 0.312 uM), 0.5199; in the test on SNU-119 (drug 0.312 uM), 1.057; with COV362 (drug 0.312 uM), 1.075.
With `CCOc1ccn(-c2ccc(F)cc2)c(=O)c1C(=O)Nc1ccc(Oc2ccnc(N)c2Cl)c(F)c1` [BMS777607], the “Kinase inhibition profile of HGSOC cells” value in the test on OVCAR4 (drug 1.2 uM) was determined as 1.062; with OVSAHO (drug 1.2 uM), 1.102; with Kuramochi (drug 1.2 uM) it was 1.007; with SNU-119 (drug 1.2 uM) it was 1.028; with COV362 (drug 1.2 uM), 0.9079.
Consider `COc1cc2c(Oc3ccc4[nH]c(C)cc4c3F)ncnc2cc1OCCCN1CCCC1` [Cederinib], for which the “Kinase inhibition profile of HGSOC cells” value in the test on OVCAR4 (drug 1.2 uM) worked out at 1.089; with OVSAHO (drug 1.2 uM), 1.089; with Kuramochi (drug 1.2 uM) it was 0.9466; in the test on SNU-119 (drug 1.2 uM) it was 0.6258; in the test with COV362 (drug 1.2 uM) it was 0.9246.
`CCS(=O)(=O)N1CCN(c2ccc(Nc3ncc(C(N)=O)c(NC4CC4)n3)cc2)CC1` [Cerdulatinib]: the “Kinase inhibition profile of HGSOC cells” value in the test with OVCAR4 (drug 2.5 uM) was 0.5051; with OVSAHO (drug 2.5 uM) it was 1; in the test on Kuramochi (drug 2.5 uM), 1; in the test on SNU-119 (drug 2.5 uM), 0.8395; in the test on COV362 (drug 2.5 uM), −0.008256.
As to `CS(=O)(=O)N1CCN(Cc2cc3nc(-c4cccc5[nH]ncc45)nc(N4CCOCC4)c3s2)CC1` [GDC-0941], the “growth inhibition by drug combined with knockdown of STK38” value in the test with OVCAR4 cells is reported as “improved growth inhibition”.
Regarding `CCc1cc(Nc2nccc(-c3c(-c4ccc(OC)c(C(=O)Nc5c(F)cccc5F)c4)nc4ccccn34)n2)c(OC)cc1N1CCC(N2CCN(S(C)(=O)=O)CC2)CC1` [GSK529A], the “Kinase inhibition profile of HGSOC cells” value in the test on OVCAR4 (drug 5 uM) was determined as 0.5226; with OVSAHO (drug 5 uM) it was 0.6574; in the test with Kuramochi (drug 5 uM), 0.9732; with SNU-119 (drug 5 uM) it was 0.6579; in the test with COV362 (drug 5 uM), 0.9731.
Turning to `Cc1sc2c(c1C)C(c1ccc(Cl)cc1)=N[C@@H](CC(=O)OC(C)(C)C)c1nnc(C)n1-2` [JQ1], in the test on OVCAR4 cells, the “growth inhibition by drug combined with depletion of AAK1” value is recorded as “enhanced growth inhibition” and the “growth inhibition by drug with MRCKA knockdown relative to non-targeting control siRNA” value is recorded as “enhanced growth inhibition”.
Consider `CNc1ncc2cc(-c3cc(NC(=O)NCCC(C)(C)C)c(F)cc3C)c(C)nc2n1` [LY300], for which the “Kinase inhibition profile of HGSOC cells” value in the test with OVCAR4 (drug 1.2 uM) is 0.6062; with OVSAHO (drug 1.2 uM), 0.166; with Kuramochi (drug 1.2 uM), 0.09151; in the test on SNU-119 (drug 1.2 uM) it was 0.6599; with COV362 (drug 1.2 uM), 0.2612.
In the case of `NC1(c2ccc(-c3nc4ccn5c(=O)[nH]nc5c4cc3-c3ccccc3)cc2)CCC1` [MK2206], the “Kinase inhibition profile of HGSOC cells” value is listed as 0.9771 in the test with OVCAR4 (drug 0.625 uM); 0.6233 with OVSAHO (drug 0.625 uM); 0.4701 in the test on Kuramochi (drug 0.625 uM); 0.9728 in the test with SNU-119 (drug 0.625 uM); 0.8254 with COV362 (drug 0.625 uM).
Consider `CC(=O)c1c(C)c2cnc(Nc3ccc(N4CCNCC4)cn3)nc2n(C2CCCC2)c1=O` [Palbociclib], for which the “Kinase inhibition profile of HGSOC cells” value was determined as 0.7952 in the test with OVCAR4 (drug 5 uM); 0.6956 in the test with OVSAHO (drug 5 uM); 0.09321 in the test on Kuramochi (drug 5 uM); 0.5867 in the test with SNU-119 (drug 5 uM); 0.92 in the test on COV362 (drug 5 uM).
Take `NC(=O)Nc1sc(-c2ccc(F)cc2)cc1C(N)=O` [TPCA-1]: the “Kinase inhibition profile of HGSOC cells” value in the test on OVCAR4 (drug 1.2 uM) stood at 0.8768; in the test with OVSAHO (drug 1.2 uM) it was 0.9827; in the test with Kuramochi (drug 1.2 uM), 0.988; with SNU-119 (drug 1.2 uM) it was 0.9375; in the test on COV362 (drug 1.2 uM), 1.094.
On to `CC(=O)Nc1cccc(-n2c(=O)n(C3CC3)c(=O)c3c(Nc4ccc(I)cc4F)n(C)c(=O)c(C)c32)c1` [Trametinib], for which the “Kinase inhibition profile of HGSOC cells” value is listed as 0.8436 with OVCAR4 (drug 0.0125 uM); 0.7824 with OVSAHO (drug 0.0125 uM); 0.7708 in the test with Kuramochi (drug 0.0125 uM); 0 with SNU-119 (drug 0.0125 uM); 0.5766 with COV362 (drug 0.0125 uM).
In the case of `CNCc1ccc(-c2cc(-c3nc(-c4ccc(S(=O)(=O)C(C)C)cc4)cnc3N)on2)cc1` [VX-90], the “Kinase inhibition profile of HGSOC cells” value with OVCAR4 (drug 0.625 uM) stood at 0.2646; with OVSAHO (drug 0.625 uM) it was 0.5885; in the test on Kuramochi (drug 0.625 uM), 0.6083; in the test on SNU-119 (drug 0.625 uM) it was 0.51; with COV362 (drug 0.625 uM), 0.3346.
On the same counts, the results for `Cc1cnc(Nc2ccc(F)cc2Cl)nc1-c1c[nH]c(C(=O)N[C@H](CO)c2cccc(Cl)c2)c1` [Vx-11e] are 0.9623, 0.5488, 0.3596, 0.3359 and 1.014.
As to AZD4547, the “Kinase inhibition profile of HGSOC cells” value turned out to be 0.5989 in the test on OVCAR4 (drug 5 uM); 0.4351 in the test with OVSAHO (drug 5 uM); 0.7095 with Kuramochi (drug 5 uM); 0.738 in the test with SNU-119 (drug 5 uM); 0.5474 in the test with COV362 (drug 5 uM).
